This note sets out measurements from patent US10689377B2 (Mirati Therapeutics, Inc., priority 2017, dated 2020).

Structures can show the parent of a compound that is named as a salt. Some results are limits rather than exact numbers.

KRas G12C, sequence (P01116 1-188 isoform P01116-2 G12C): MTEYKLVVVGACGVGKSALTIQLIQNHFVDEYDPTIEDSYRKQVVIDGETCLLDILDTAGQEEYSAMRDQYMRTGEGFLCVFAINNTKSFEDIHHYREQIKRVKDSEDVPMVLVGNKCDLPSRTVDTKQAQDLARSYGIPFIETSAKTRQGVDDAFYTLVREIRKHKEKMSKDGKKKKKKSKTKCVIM

The test deals with KRas G12C (Homo sapiens, UniProt P01116, G12C). As to the kind of experiment: Cellular inhibition of KRas G12C measured by Phospho-ERK in NCI-H358 cells. As to conditions: pERK(Thr202/Tyr204) normalized with GAPDH, NCI-H358 cells, 3 hours; read-out: IC50. Type of test: cell-based. A digest of the protocol:
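Following 8-12 h attachment, NCI-H358 cells got serially diluted compound (0.5% DMSO) for 3 hours. Cells were then fixed, permeabilized with cold methanol, and stained for pERK(Thr202/Tyr204) and GAPDH. Ratios were converted to percent of DMSO control, with IC50 obtained by four-parameter regression.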
Broadly, the IC50 is the concentration at which inhibition is half-maximal. Consider `Cc1cccc2cccc(N3CCc4c(nc(OC[C@@H]5CCCN5C)nc4N4CCN(C(=O)C#CCO)[C@@H](CC#N)C4)C3)c12` [Example 508, 2-((S)-1-(4-hydroxybut-2-ynoyl)-4-(7-(8-methylnaphthalen-1-yl)-2-(((S)-1-methylpyrrolidin-2-yl)methoxy)-5,6,7,8-tetrahydropyrido[3,4-d]pyrimidin-4-yl)piperazin-2-yl)acetonitrile], for which the concentration for half-maximal inhibition (IC50) is 0.1 to 1000 nM.
In the case of `C=CC(=O)N1CCN(c2nc(OC[C@H]3CCCCN3C)nc3c2CCN(c2cccc4ccccc24)C3)C[C@@H]1CC#N` [Example 432, 2-((S)-1-acryloyl-4-(2-(((R)-1-methylpiperidin-2-yl)methoxy)-7-(naphthalen-1-yl)-5,6,7,8-tetrahydropyrido[3,4-d]pyrimidin-4-yl)piperazin-2-yl)acetonitrile] it was 0.1 to 1000 nM; in that of `C=CC(=O)N1CCN(c2nc(OCCCN3CCOCC3)nc3c2CCN(c2cc(O)cc(C)c2C)C3)CC1` [Example 213, 1-(4-(7-(5-hydroxy-2,3-dimethylphenyl)-2-(3-morpholinopropoxy)-5,6,7,8-tetrahydropyrido[3,4-d]pyrimidin-4-yl)piperazin-1-yl)prop-2-en-1-one], over 1000 nM; in that of `C#CC[C@H]1CN(c2nc(OC[C@@H]3CCCN3C)nc3c2CCN(c2cccc4ccccc24)C3)CCN1C(=O)C=C` [Example 358, 1-[(2S)-4-[2-[[(2S)-1-methylpyrrolidin-2-yl]methoxy]-7-(1-naphthyl)-6,8-dihydro-5H-pyrido[3,4-d]pyrimidin-4-yl]-2-prop-2-ynyl-piperazin-1-yl]prop-2-en-1-one], 0.1 to 1000 nM.
Consider `C=CC(=O)N1CCN(c2nc(OC[C@@H]3CCCN3C)nc3c2CCN(c2cccc4ncccc24)C3)CC1CC#N` (stereo partly drawn) [Example 264, 2-[4-[2-[[(2S)-1-methylpyrrolidin-2-yl]methoxy]-7-(5-quinolyl)-6,8-dihydro-5H-pyrido[3,4-d]pyrimidin-4-yl]-1-prop-2-enoyl-piperazin-2-yl]acetonitrile], for which the IC50 is over 1000 nM.
Consider `C=CC(=O)N1CCN(c2ncnc3c2CC(=O)N(c2cc(O)cc4ccccc24)C3)CC1` [Example 113, 4-(4-acryloylpiperazin-1-yl)-7-(3-hydroxynaphthalen-1-yl)-7,8-dihydropyrido[3,4-d]pyrimidin-6(5H)-one], for which the half-inhibitory concentration (IC50) was over 1000 nM.
Then `C=CC(=O)N1CCN(c2nc(OC[C@@H]3CCCN3C)nc3c2CCN(c2cccc(C)c2C)C3)CC1CC#N` (stereo partly drawn) [Example 228, 2-(1-acryloyl-4-(7-(2,3-dimethylphenyl)-2-(((S)-1-methylpyrrolidin-2-yl)methoxy)-5,6,7,8-tetrahydropyrido[3,4-d]pyrimidin-4-yl)piperazin-2-yl)acetonitrile], with 0.1 to 1000 nM.
Then `C=C(F)C(=O)N1CCN(c2nc(OC[C@H]3C[C@@H](OC)CN3C)nc3c2CCN(c2cccc4cccc(C)c24)C3)C[C@@H]1CC#N` [Example 519, 2-[(2S)-1-(2-fluoroprop-2-enoyl)-4-[2-[[(2R,4R)-4-methoxy-1-methyl-pyrrolidin-2-yl]methoxy]-7-(8-methyl-1-naphthyl)-6,8-dihydro-5H-pyrido[3,4-d]pyrimidin-4-yl]piperazin-2-yl]acetonitrile], with 0.1 to 1000 nM.
In the case of `C=CC(=O)N1CCN(c2nc(OC3CCN(C)CC3)nc3c2CCN(c2cc(O)cc4ccccc24)C3)CC1` [Example 22, 1-(4-(7-(3-hydroxynaphthalen-1-yl)-2-((1-methylpiperidin-4-yl)oxy)-5,6,7,8-tetrahydropyrido[3,4-d]pyrimidin-4-yl)piperazin-1-yl)prop-2-en-1-one] it was over 1000 nM; in that of `C=CC(=O)N1CCN(c2nc(OC[C@@H]3CCCN3C)nc3c2CCN(c2cnccc2C2CC2)C3)C[C@@H]1CC#N` [Example 352, 2-[(2S)-4-[7-(4-cyclopropyl-3-pyridyl)-2-[[(2S)-1-methylpyrrolidin-2-yl]methoxy]-6,8-dihydro-5H-pyrido[3,4-d]pyrimidin-4-yl]-1-prop-2-enoyl-piperazin-2-yl]acetonitrile], 0.1 to 1000 nM; in that of `C=CC(=O)N1CCN(c2nc(OCCN(C)C)nc3c2CCN(c2ccccc2C(F)(F)F)C3)CC1CC#N` (stereo not drawn) [Example 279, 2-(1-acryloyl-4-(2-(2-(dimethylamino)ethoxy)-7-(2-(trifluoromethyl)phenyl)-5,6,7,8-tetrahydropyrido[3,4-d]pyrimidin-4-yl)piperazin-2-yl)acetonitrile], 0.1 to 1000 nM.
For `C=CC(=O)N1CCN(c2nc(OC[C@H]3CCCCN3C)nc3c2CCN(c2cc(O)cc4ccccc24)C3)CC1` [Example 195, (R)-1-(4-(7-(3-hydroxynaphthalen-1-yl)-2-((1-methylpiperidin-2-yl)methoxy)-5,6,7,8-tetrahydropyrido[3,4-d]pyrimidin-4-yl)piperazin-1-yl)prop-2-en-1-one], the IC50 is over 1000 nM.
As for `C=CC(=O)N1CCN(c2nc(OC[C@@H]3CCCN3C)nc3c2CCN(c2ccnc4ccccc24)C3)CC1CC#N` (stereo partly drawn) [Example 278, 2-(1-acryloyl-4-(2-(((S)-1-methylpyrrolidin-2-yl)methoxy)-7-(quinolin-4-yl)-5,6,7,8-tetrahydropyrido[3,4-d]pyrimidin-4-yl)piperazin-2-yl)acetonitrile], the concentration for half-maximal inhibition (IC50) lay in the range of 0.1 to 1000 nM.
In the case of `C=CC(=O)N1CCN(c2nc(OC[C@@H]3CCCN3C)nc3c2CCN(c2cccc(OC)c2C)C3)C[C@@H]1CC#N` [Example 324, 2-[(2S)-4-[7-(3-methoxy-2-methyl-phenyl)-2-[[(2S)-1-methylpyrrolidin-2-yl]methoxy]-6,8-dihydro-5H-pyrido[3,4-d]pyrimidin-4-yl]-1-prop-2-enoyl-piperazin-2-yl]acetonitrile] it was 0.1 to 1000 nM.
Then `Cc1cccc(N2CCc3c(nc(OC[C@@H]4CCCN4C)nc3N3CCN(C(=O)/C=C/CN(C)C)[C@@H](CC#N)C3)C2)c1C` [Example 404, 2-((S)-1-((E)-4-(dimethylamino)but-2-enoyl)-4-(7-(2,3-dimethylphenyl)-2-(((S)-1-methylpyrrolidin-2-yl)methoxy)-5,6,7,8-tetrahydropyrido[3,4-d]pyrimidin-4-yl)piperazin-2-yl)acetonitrile], with 0.1 to 1000 nM; and `C/C=C/C(=O)N1CCN(c2nc(OC[C@@H]3CCCN3C)nc3c2CCN(c2cccc4ccccc24)C3)CC1CC#N` (stereo partly drawn) [Example 263, 2-[1-[(E)-but-2-enoyl]-4-[2-[[(2S)-1-methylpyrrolidin-2-yl]methoxy]-7-(1-naphthyl)-6,8-dihydro-5H-pyrido[3,4-d]pyrimidin-4-yl]piperazin-2-yl]acetonitrile], with 0.1 to 1000 nM; and `C=CC(=O)N1CCN(c2nc(OC[C@H]3CCCN3C)nc3c2CCN(c2cccc(Cl)c2C(F)(F)F)C3)C[C@@H]1CC#N` [Example 319, 2-((S)-1-acryloyl-4-(7-(3-chloro-2-(trifluoromethyl)phenyl)-2-(((R)-1-methylpyrrolidin-2-yl)methoxy)-5,6,7,8-tetrahydropyrido[3,4-d]pyrimidin-4-yl)piperazin-2-yl)acetonitrile], with 0.1 to 1000 nM.
In the case of `C=CC(=O)N1CCN(c2nc(OC[C@@H]3CCCN3C)nc3c2CCN(c2cccc(C)c2C)C3)C[C@@H]1CC#N` [Example 394, 2-((S)-1-acryloyl-4-(7-(2,3-dimethylphenyl)-2-(((S)-1-methylpyrrolidin-2-yl)methoxy)-5,6,7,8-tetrahydropyrido[3,4-d]pyrimidin-4-yl)piperazin-2-yl)acetonitrile] it was 0.1 to 1000 nM; in that of `CC#CC(=O)N1CCN(c2nc(OC[C@@H]3CCCN3C)nc3c2CCN(c2cccc4ccccc24)C3)CC1CC#N` (stereo partly drawn) [Example 376, 2-(1-(but-2-ynoyl)-4-(2-(((S)-1-methylpyrrolidin-2-yl)methoxy)-7-(naphthalen-1-yl)-5,6,7,8-tetrahydropyrido[3,4-d]pyrimidin-4-yl)piperazin-2-yl)acetonitrile 2,2,2-trifluoroacetate], 0.1 to 1000 nM; in that of `C=CC(=O)N1CCN(c2nc(O[C@@H]3CCCN(C)C3)nc3c2CCN(c2cc(O)cc4ccccc24)C3)CC1` [Example 67, (R)-1-(4-(7-(3-hydroxynaphthalen-1-yl)-2-((1-methylpiperidin-3-yl)oxy)-5,6,7,8-tetrahydropyrido[3,4-d]pyrimidin-4-yl)piperazin-1-yl)prop-2-en-1-one], 0.1 to 1000 nM.
Take `C=CC(=O)N1CCN(c2nc(OC(CO)CN3CCOCC3)nc3c2CCN(c2cc(O)cc4ccccc24)C3)CC1` (stereo not drawn) [Example 217, 1-(4-(2-((1-hydroxy-3-morpholinopropan-2-yl)oxy)-7-(3-hydroxynaphthalen-1-yl)-5,6,7,8-tetrahydropyrido[3,4-d]pyrimidin-4-yl)piperazin-1-yl)prop-2-en-1-one]: the IC50 is over 1000 nM.
Take `C=CC(=O)N1CCN(c2nc(OCCCN3CCOCC3)nc3c2CCN(c2cc(O)cc(C4CC4)c2)C3)CC1` [Example 41, 1-(4-(7-(3-cyclopropyl-5-hydroxyphenyl)-2-(3-morpholinopropoxy)-5,6,7,8-tetrahydropyrido[3,4-d]pyrimidin-4-yl)piperazin-1-yl)prop-2-en-1-one trifluoroacetate]: the IC50 is over 1000 nM.
Regarding `C=CC(=O)N1CCN(c2nc(OC[C@H]3CCCN3C)nc3c2CCN(c2cc(O)cc4ccccc24)C3)CC1CC#N` (stereo partly drawn) [Example 178, 2-[4-[7-(3-hydroxy-1-naphthyl)-2-[[(2R)-1-methylpyrrolidin-2-yl]methoxy]-6,8-dihydro-5H-pyrido[3,4-d]pyrimidin-4-yl]-1-prop-2-enoyl-piperazin-2-yl]acetonitrile], the IC50 fell in the range of 0.1 to 1000 nM.
For `C=CC(=O)N1CCN(c2nc(OC[C@@H]3CCCN3C)nc3c2CCN(c2ccccc2C#N)C3)C[C@@H]1CC#N` [Example 325, 2-[4-[(3S)-3-(cyanomethyl)-4-prop-2-enoyl-piperazin-1-yl]-2-[[(2S)-1-methylpyrrolidin-2-yl]methoxy]-6,8-dihydro-5H-pyrido[3,4-d]pyrimidin-7-yl]benzonitrile], the IC50 is over 1000 nM.
